Tested on: 171881-019-R-J1-PDC complex spheroid viability
Experiment: Anticancer human tumor 171881-019-R-J1-PDC patient-derived invasive breast carcinoma cell line growth inhibition
Details: for IC50: curve of first compound; for viability, T/C: stronger effect = lower value
In short: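 Complex spheroids of tumor cells with HUVEC and human MSCs, exposed to iadademstat combined with other agents. Each agent tested in half-log steps from near clinical Cmax (else 10 microM top), DMSO ≤0.25%.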

[1] = second compound 0.1 µM, first compound 0.0316 µM
[2] = second compound 0.1 µM, first compound 0.1 µM
[3] = second compound 0.1 µM, first compound 0.316 µM
[4] = second compound 0.1 µM, first compound 1 µM
[5] = second compound 0.1 µM, first compound 3.16 µM
[6] = second compound 0.1 µM, first compound 10 µM
[7] = second compound 0.316 µM, first compound 0.0316 µM
[8] = second compound 0.316 µM, first compound 0.1 µM
[9] = second compound 0.316 µM, first compound 0.316 µM
[10] = second compound 0.316 µM, first compound 1 µM
[11] = second compound 0.316 µM, first compound 3.16 µM
[12] = second compound 0.316 µM, first compound 10 µM
[13] = second compound 1 µM, first compound 0.0316 µM
[14] = second compound 1 µM, first compound 0.1 µM
[15] = second compound 1 µM, first compound 0.316 µM
[16] = second compound 1 µM, first compound 1 µM
[17] = second compound 1 µM, first compound 3.16 µM
[18] = second compound 1 µM, first compound 10 µM
[19] = second compound 3.16 µM, first compound 0.0316 µM
[20] = second compound 3.16 µM, first compound 0.1 µM
[21] = second compound 3.16 µM, first compound 0.316 µM
[22] = second compound 3.16 µM, first compound 1 µM
[23] = second compound 3.16 µM, first compound 3.16 µM
[24] = second compound 3.16 µM, first compound 10 µM
[25] = second compound 10 µM, first compound 0.0316 µM
[26] = second compound 10 µM, first compound 0.1 µM
[27] = second compound 10 µM, first compound 0.316 µM
[28] = second compound 10 µM, first compound 1 µM
[29] = second compound 10 µM, first compound 3.16 µM
[30] = second compound 10 µM, first compound 10 µM
[31] = second compound 0.1 µM, first compound 0.00316 µM
[32] = second compound 0.1 µM, first compound 0.01 µM
[33] = second compound 0.316 µM, first compound 0.00316 µM
[34] = second compound 0.316 µM, first compound 0.01 µM
[35] = second compound 1 µM, first compound 0.00316 µM
[36] = second compound 1 µM, first compound 0.01 µM
[37] = second compound 3.16 µM, first compound 0.00316 µM
[38] = second compound 3.16 µM, first compound 0.01 µM
[39] = second compound 10 µM, first compound 0.00316 µM
[40] = second compound 10 µM, first compound 0.01 µM

## CC(C)c1c(-c2ccccc2)nc2c(C#N)c[nH]n2c1=O + NC1CC1c1ccc(-c2cccc(O)c2)cc1
Second compound 0.1 µM
  IC50: 4990 nM
Second compound 0.316 µM
  IC50: 5400 nM
Second compound 1 µM
  IC50: 5360 nM
Second compound 3.16 µM
  IC50: 5450 nM
Second compound 10 µM
  IC50: 4950 nM
[1]
  viability, T/C: 104%
[2]
  viability, T/C: 103%
[3]
  viability, T/C: 93%
[4]
  viability, T/C: 87.3%
[5]
  viability, T/C: 72.1%
[6]
  viability, T/C: 19.8%
[7]
  viability, T/C: 102%
[8]
  viability, T/C: 102%
[9]
  viability, T/C: 95.8%
[10]
  viability, T/C: 90.4%
[11]
  viability, T/C: 75.5%
[12]
  viability, T/C: 22.1%
[13]
  viability, T/C: 108%
[14]
  viability, T/C: 101%
[15]
  viability, T/C: 93.9%
[16]
  viability, T/C: 89.5%
[17]
  viability, T/C: 75.7%
[18]
  viability, T/C: 22.5%
[19]
  viability, T/C: 103%
[20]
  viability, T/C: 98.6%
[21]
  viability, T/C: 97%
[22]
  viability, T/C: 87.4%
[23]
  viability, T/C: 77.1%
[24]
  viability, T/C: 22%
[25]
  viability, T/C: 85.7%
[26]
  viability, T/C: 81.9%
[27]
  viability, T/C: 81.4%
[28]
  viability, T/C: 80.5%
[29]
  viability, T/C: 70.6%
[30]
  viability, T/C: 18.1%

## CC1COCCN1c1cc(-c2ccnn2C)c2ccnc(-c3ccn[nH]3)c2n1 (stereo not given) + NC1CC1c1ccc(-c2cccc(O)c2)cc1
Second compound 0.1 µM
  IC50: 6.07 nM
Second compound 0.316 µM
  IC50: 4.76 nM
Second compound 1 µM
  IC50: 4.38 nM
Second compound 3.16 µM
  IC50: 6.57 nM
Second compound 10 µM
  IC50: 4.98 nM
[31]
  viability, T/C: 54.6%
[32]
  viability, T/C: 46.5%
[1]
  viability, T/C: 23.1%
[2]
  viability, T/C: 9.09%
[3]
  viability, T/C: 6.72%
[4]
  viability, T/C: 6.42%
[33]
  viability, T/C: 53.6%
[34]
  viability, T/C: 43.5%
[7]
  viability, T/C: 23.6%
[8]
  viability, T/C: 9.96%
[9]
  viability, T/C: 6.7%
[10]
  viability, T/C: 5.87%
[35]
  viability, T/C: 51.1%
[36]
  viability, T/C: 47%
[13]
  viability, T/C: 25.3%
[14]
  viability, T/C: 9.83%
[15]
  viability, T/C: 6.55%
[16]
  viability, T/C: 5.67%
[37]
  viability, T/C: 56%
[38]
  viability, T/C: 46.4%
[19]
  viability, T/C: 23.8%
[20]
  viability, T/C: 8.53%
[21]
  viability, T/C: 5.95%
[22]
  viability, T/C: 5.45%
[39]
  viability, T/C: 54.1%
[40]
  viability, T/C: 44%
[25]
  viability, T/C: 22.4%
[26]
  viability, T/C: 12.8%
[27]
  viability, T/C: 7.13%
[28]
  viability, T/C: 6.24%

## CC1COCCN1c1cc(C2(S(C)(=N)=O)CC2)nc(-c2ccnc3[nH]ccc23)n1 (stereo not given) + NC1CC1c1ccc(-c2cccc(O)c2)cc1
Second compound 0.1 µM
  IC50: 1370 nM
Second compound 0.316 µM
  IC50: 1450 nM
Second compound 1 µM
  IC50: 1470 nM
Second compound 3.16 µM
  IC50: 1410 nM
Second compound 10 µM
  IC50: 1150 nM
[1]
  viability, T/C: 103%
[2]
  viability, T/C: 102%
[3]
  viability, T/C: 97.9%
[4]
  viability, T/C: 59.6%
[5]
  viability, T/C: 22.3%
[6]
  viability, T/C: 9.45%
[7]
  viability, T/C: 106%
[8]
  viability, T/C: 103%
[9]
  viability, T/C: 99.3%
[10]
  viability, T/C: 61.1%
[11]
  viability, T/C: 24.7%
[12]
  viability, T/C: 9.56%
[13]
  viability, T/C: 103%
[14]
  viability, T/C: 104%
[15]
  viability, T/C: 91.1%
[16]
  viability, T/C: 63.5%
[17]
  viability, T/C: 24.3%
[18]
  viability, T/C: 9.48%
[19]
  viability, T/C: 99.5%
[20]
  viability, T/C: 104%
[21]
  viability, T/C: 96.9%
[22]
  viability, T/C: 61.5%
[23]
  viability, T/C: 21.8%
[24]
  viability, T/C: 8.64%
[25]
  viability, T/C: 86.4%
[26]
  viability, T/C: 87.7%
[27]
  viability, T/C: 81.6%
[28]
  viability, T/C: 53.3%
[29]
  viability, T/C: 21.1%
[30]
  viability, T/C: 8.98%

## COc1ccc([C@@H](O)c2cc(-c3ncnc4cc(N5CCOCC5)ccc34)c(F)cc2Cl)nn1 + NC1CC1c1ccc(-c2cccc(O)c2)cc1
Second compound 0.1 µM
  IC50: 624 nM
Second compound 0.316 µM
  IC50: 672 nM
Second compound 1 µM
  IC50: 753 nM
Second compound 3.16 µM
  IC50: 804 nM
Second compound 10 µM
  IC50: 606 nM
[1]
  viability, T/C: 100%
[2]
  viability, T/C: 99.9%
[3]
  viability, T/C: 78.9%
[4]
  viability, T/C: 30.5%
[5]
  viability, T/C: 7.18%
[6]
  viability, T/C: 11%
[7]
  viability, T/C: 103%
[8]
  viability, T/C: 100%
[9]
  viability, T/C: 81.2%
[10]
  viability, T/C: 34.4%
[11]
  viability, T/C: 8.07%
[12]
  viability, T/C: 11%
[13]
  viability, T/C: 108%
[14]
  viability, T/C: 107%
[15]
  viability, T/C: 85.9%
[16]
  viability, T/C: 39.2%
[17]
  viability, T/C: 8.76%
[18]
  viability, T/C: 9.94%
[19]
  viability, T/C: 104%
[20]
  viability, T/C: 106%
[21]
  viability, T/C: 92.1%
[22]
  viability, T/C: 40.8%
[23]
  viability, T/C: 7.82%
[24]
  viability, T/C: 10.7%
[25]
  viability, T/C: 84.8%
[26]
  viability, T/C: 88.6%
[27]
  viability, T/C: 75.2%
[28]
  viability, T/C: 30.6%
[29]
  viability, T/C: 8.18%
[30]
  viability, T/C: 9.78%

## Nc1ncn(C2CC(O)C(CO)S2)c(=O)n1 (stereo not given) + NC1CC1c1ccc(-c2cccc(O)c2)cc1
Second compound 0.1 µM
  IC50: 93.9 nM
Second compound 0.316 µM
  IC50: 119 nM
Second compound 1 µM
  IC50: 102 nM
Second compound 3.16 µM
  IC50: 99.3 nM
Second compound 10 µM
  IC50: 80.2 nM
Second compound 0.1 µM, first compound 0.000949 µM
  viability, T/C: 101%
Second compound 0.1 µM, first compound 0.003 µM
  viability, T/C: 106%
Second compound 0.1 µM, first compound 0.00949 µM
  viability, T/C: 102%
Second compound 0.1 µM, first compound 0.03 µM
  viability, T/C: 75.3%
Second compound 0.1 µM, first compound 0.0949 µM
  viability, T/C: 52.3%
Second compound 0.1 µM, first compound 0.3 µM
  viability, T/C: 34.4%
Second compound 0.316 µM, first compound 0.000949 µM
  viability, T/C: 111%
Second compound 0.316 µM, first compound 0.003 µM
  viability, T/C: 106%
Second compound 0.316 µM, first compound 0.00949 µM
  viability, T/C: 101%
Second compound 0.316 µM, first compound 0.03 µM
  viability, T/C: 75.8%
Second compound 0.316 µM, first compound 0.0949 µM
  viability, T/C: 56.2%
Second compound 0.316 µM, first compound 0.3 µM
  viability, T/C: 32.1%
Second compound 1 µM, first compound 0.000949 µM
  viability, T/C: 108%
Second compound 1 µM, first compound 0.003 µM
  viability, T/C: 95.7%
Second compound 1 µM, first compound 0.00949 µM
  viability, T/C: 98.1%
Second compound 1 µM, first compound 0.03 µM
  viability, T/C: 76.8%
Second compound 1 µM, first compound 0.0949 µM
  viability, T/C: 51.4%
Second compound 1 µM, first compound 0.3 µM
  viability, T/C: 30.3%
Second compound 3.16 µM, first compound 0.000949 µM
  viability, T/C: 95.1%
Second compound 3.16 µM, first compound 0.003 µM
  viability, T/C: 90.8%
Second compound 3.16 µM, first compound 0.00949 µM
  viability, T/C: 88.7%
Second compound 3.16 µM, first compound 0.03 µM
  viability, T/C: 69.2%
Second compound 3.16 µM, first compound 0.0949 µM
  viability, T/C: 52.1%
Second compound 3.16 µM, first compound 0.3 µM
  viability, T/C: 30.1%
Second compound 10 µM, first compound 0.000949 µM
  viability, T/C: 75.8%
Second compound 10 µM, first compound 0.003 µM
  viability, T/C: 71.8%
Second compound 10 µM, first compound 0.00949 µM
  viability, T/C: 81.3%
Second compound 10 µM, first compound 0.03 µM
  viability, T/C: 61.7%
Second compound 10 µM, first compound 0.0949 µM
  viability, T/C: 48.9%
Second compound 10 µM, first compound 0.3 µM
  viability, T/C: 31%

## O=C(C=Cn1cnc(-c2cc(C(F)(F)F)cc(C(F)(F)F)c2)n1)NNc1cnccn1 + NC1CC1c1ccc(-c2cccc(O)c2)cc1
Second compound 0.1 µM
  IC50: < 3.16 nM
Second compound 0.316 µM
  IC50: < 3.16 nM
Second compound 1 µM
  IC50: < 3.16 nM
Second compound 3.16 µM
  IC50: < 3.16 nM
Second compound 10 µM
  IC50: < 3.16 nM
[31]
  viability, T/C: 19.1%
[32]
  viability, T/C: 13%
[1]
  viability, T/C: 4.97%
[2]
  viability, T/C: 2.14%
[3]
  viability, T/C: 2.1%
[4]
  viability, T/C: 1.99%
[33]
  viability, T/C: 21.3%
[34]
  viability, T/C: 14.4%
[7]
  viability, T/C: 5.36%
[8]
  viability, T/C: 2.27%
[9]
  viability, T/C: 2.08%
[10]
  viability, T/C: 1.91%
[35]
  viability, T/C: 23.4%
[36]
  viability, T/C: 16.1%
[13]
  viability, T/C: 9.98%
[14]
  viability, T/C: 2.64%
[15]
  viability, T/C: 2.11%
[16]
  viability, T/C: 1.82%
[37]
  viability, T/C: 25.9%
[38]
  viability, T/C: 17.5%
[19]
  viability, T/C: 5.43%
[20]
  viability, T/C: 2.42%
[21]
  viability, T/C: 2.5%
[22]
  viability, T/C: 2.17%
[39]
  viability, T/C: 25%
[40]
  viability, T/C: 16.5%
[25]
  viability, T/C: 6.08%
[26]
  viability, T/C: 11.4%
[27]
  viability, T/C: 6.91%
[28]
  viability, T/C: 3.16%

— PubChem BioAssay AID1918932 (Molecular Pharmacology Branch, DTP, NCI, 2023)
